Results: ChEMBL document CHEMBL3044741, “Synthesis of novel biologically active methylene derivatives of sydnones” (Med Chem Res, 2013)
Converted amounts (≈) assume the structure as drawn.

Key:
[1] = Selectivity index, ratio of CC50 for human MT4 cells to IC50 for HIV2 ROD; type: functional
[2] = Cytotoxicity against human MT4 cells by MTT assay; type: cell-based
[3] = Selectivity index, ratio of CC50 for human MT4 cells to IC50 for HIV1 3B; type: functional
[4] = system: Human immunodeficiency virus 2; experiment: Antiviral activity against HIV2 ROD infected in MT4 cells assessed as inhibition of virus-induced cytopathogenicity by MTT assay; type: functional, organism-based; settings: Human immunodeficiency virus 2, ISOLATE ROD
[5] = system: Human alphaherpesvirus 3; experiment: Antiviral activity against thymidine kinase-deficient Varicella-zoster virus infected in HEL cells assessed as reduction in plaque formation; type: functional, organism-based; settings: Human alphaherpesvirus 3, HEL
[6] = system: Human immunodeficiency virus 1; experiment: Antiviral activity against HIV1 3B infected in MT4 cells assessed as inhibition of virus-induced cytopathogenicity by MTT assay; type: functional, organism-based; settings: Human immunodeficiency virus 1, 3B
[7] = system: Human alphaherpesvirus 3; experiment: Antiviral activity against Varicella-zoster virus Oka expressing thymidine kinase infected in HEL cells assessed as reduction in plaque formation; type: functional, organism-based; settings: Human alphaherpesvirus 3, strain Oka vaccine
[8] = Cytotoxicity against human HEL cells; type: cell-based
[9] = system: Cytomegalovirus; experiment: Antiviral activity against Cytomegalovirus Davis in HEL cells assessed as reduction in plaque formation; type: functional, organism-based; settings: Human betaherpesvirus 5, Davis
[10] = Cytotoxicity against human HEL cells assessed as alteration in cell morphology; type: cell-based
[11] = system: Cytomegalovirus; experiment: Antiviral activity against Cytomegalovirus AD-169 infected in HEL cells assessed as reduction in plaque formation; type: functional, organism-based; settings: Human betaherpesvirus 5, AD-169, HEL
[12] = system: Aspergillus niger; experiment: Antifungal activity against Aspergillus niger MTCC 282; type: functional
[13] = system: Aspergillus clavatus; experiment: Antifungal activity against Aspergillus clavatus MTCC 1323; type: functional
[14] = system: Candida albicans; experiment: Antifungal activity against Candida albicans MTCC 227; type: functional
[15] = system: Aspergillus niger; experiment: Antifungal activity against Aspergillus niger MTCC 282 at 250 ug/ml after 74 hrs by Kirby-Bauer method; type: functional; settings: MTCC 282, 74 h, read-out: IZ
[16] = system: Aspergillus clavatus; experiment: Antifungal activity against Aspergillus clavatus MTCC 1323 at 250 ug/ml after 74 hrs by Kirby-Bauer method; type: functional; settings: MTCC 1323, 74 h, read-out: IZ
[17] = system: Candida albicans; experiment: Antifungal activity against Candida albicans MTCC 227 at 250 ug/ml after 74 hrs by Kirby-Bauer method; type: functional; settings: MTCC 227, 74 h, read-out: IZ
[18] = system: Pseudomonas aeruginosa; experiment: Antibacterial activity against Pseudomonas aeruginosa MTCC 424 after 24 hrs by broth dilution method; type: functional; settings: MTCC 424, 24 h
[19] = system: Streptococcus pyogenes; experiment: Antibacterial activity against Streptococcus pyogenes MTCC 442 after 24 hrs by broth dilution method; type: functional; settings: MTCC 442, 24 h
[20] = system: Escherichia coli; experiment: Antibacterial activity against Escherichia coli MTCC 443 after 24 hrs by broth dilution method; type: functional; settings: MTCC 443, 24 h
[21] = system: Staphylococcus aureus; experiment: Antibacterial activity against Staphylococcus aureus MTCC 96 after 24 hrs by broth dilution method; type: functional; settings: MTCC 96, 24 h
[22] = system: Pseudomonas aeruginosa; experiment: Antibacterial activity against Pseudomonas aeruginosa MTCC 424 at 250 ug/ml after 24 hrs by Kirby-Bauer method; type: functional; settings: MTCC 424, 24 h, read-out: IZ
[23] = system: Escherichia coli; experiment: Antibacterial activity against Escherichia coli MTCC 443 at 250 ug/ml after 24 hrs by Kirby-Bauer method; type: functional; settings: MTCC 443, 24 h, read-out: IZ
[24] = system: Streptococcus pyogenes; experiment: Antibacterial activity against Streptococcus pyogenes MTCC 442 at 250 ug/ml after 24 hrs by Kirby-Bauer method; type: functional; settings: MTCC 442, 24 h, read-out: IZ
[25] = system: Staphylococcus aureus; experiment: Antibacterial activity against Staphylococcus aureus MTCC 96 at 250 ug/ml after 24 hrs by Kirby-Bauer method; type: functional; settings: MTCC 96, 24 h, read-out: IZ

[O-]c1on[n+](-c2ccc(Cc3ccc(-[n+]4noc([O-])c4CN4CCNCC4)cc3)cc2)c1CN1CCNCC1
Ratio CC50/IC50 [1]: <1 | CC50 [2]: 14 µg/mL (≈ 26.3 µM) | Ratio CC50/IC50 [3]: <1 | IC50 [4]: > 14 µg/mL | EC50 [5]: > 4 µg/mL | IC50 [6]: > 14 µg/mL | EC50 [7]: > 4 µg/mL | CC50 [8]: 20 µg/mL (≈ 37.6 µM) | EC50 [9]: 20 µg/mL (≈ 37.6 µM) | MCC [10]: 100 µg/mL | EC50 [11]: 11.7 µg/mL (≈ 22 µM) | MIC [12]: 250 µg/mL (≈ 469 µM) | MIC [13]: 1000 µg/mL (≈ 1880 µM) | MIC [14]: 1000 µg/mL (≈ 1880 µM) | zone of inhibition at 250 µg/mL [15]: 23 mm | zone of inhibition at 250 µg/mL [16]: 19 mm | zone of inhibition at 250 µg/mL [17]: 21 mm | MIC [18]: 100 µg/mL (≈ 188 µM) | MIC [19]: 500 µg/mL (≈ 939 µM) | MIC [20]: 62.5 µg/mL (≈ 117 µM) | MIC [21]: 200 µg/mL (≈ 376 µM) | zone of inhibition at 250 µg/mL [22]: 21 mm | zone of inhibition at 250 µg/mL [23]: 21 mm | zone of inhibition at 250 µg/mL [24]: 17 mm | zone of inhibition at 250 µg/mL [25]: 18 mm
